Columns and labels:
Experiment in all cases: selective drug sensitivity score (sDSS, relative to normal bone marrow) (sDSS (score)); higher = more potent and effective on the cell line relative to normal bone marrow cells
Settings in all cases: 72 h
[1] = system: 697
[2] = system: ALL-PO
[3] = system: ALL-SIL
[4] = system: CCRF-HSB2
[5] = system: COG-LL-317
[6] = system: COG-LL-332h
[7] = system: COG-LL-394h
[8] = system: HAL-01
[9] = system: JURKAT
[10] = system: KARPAS-45
[11] = system: KASUMI-2
[12] = system: MHH-CALL-2
[13] = system: MHH-CALL-4
[14] = system: MOLT-16
[15] = system: NALM-6
[16] = system: PEER
[17] = system: RCH-ACV
[18] = system: SEM cells
[19] = system: SUP-B15
[20] = system: TANOUE
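Note: ALL cell lines in 384-well plates, five doses spanning 10,000-fold, each plate scaled between vehicle and 100 µmol/L benzalkonium chloride controls, sDSS an adapted area-under-curve metric.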

SMILES	selective drug sensitivity score [1]	selective drug sensitivity score [2]	selective drug sensitivity score [3]	selective drug sensitivity score [4]	selective drug sensitivity score [5]	selective drug sensitivity score [6]	selective drug sensitivity score [7]	selective drug sensitivity score [8]	selective drug sensitivity score [9]	selective drug sensitivity score [10]	selective drug sensitivity score [11]	selective drug sensitivity score [12]	selective drug sensitivity score [13]	selective drug sensitivity score [14]	selective drug sensitivity score [15]	selective drug sensitivity score [16]	selective drug sensitivity score [17]	selective drug sensitivity score [18]	selective drug sensitivity score [19]	selective drug sensitivity score [20]
CNC(=O)c1ccccc1Nc1nc(Nc2ccc3c(c2OC)CCC[C@H](N2CCN(CCO)CC2)C3)ncc1Cl (top concentration 5000 nM)	2.86	5.76	1.36	-1.44	-2.14	-1.54	3.16	0.46	-2.54	1.26	-3.24	1.66	-0.94	2.06	-1.04	-1.44	0.46	3.06	3.96	-5.34
COc1cc(OC)c(/C=C/S(=O)(=O)Cc2ccc(OC)c(NCC(=O)O)c2)c(OC)c1 [Rigosertib] (top concentration 10000 nM)	17	11.2	13.1	14.6	14.3	15.8	6.76	14.5	14.4	15.2	14.6	15.2	8.26	18.8	16.1	15.9	17.3	17.3	14.6	-5.04
COc1cccc2c1c(O)c(C(=O)N(C)c1ccc(C(F)(F)F)cc1)c(=O)n2C [Tasquinimod] (top concentration 10000 nM)	-0.42	-0.32	3.48	2.38	0.28	0.48	-0.42	-0.42	-0.42	-0.22	-0.42	0.88	0.68	-0.42	-0.42	-0.32	-0.42	-0.42	2.78	1.58
Cc1ccc(NC(=O)c2ccc(CN3CCN(C)CC3)cc2)cc1Nc1nc(-c2cccnc2)cs1 [Masitinib] (top concentration 10000 nM)	1.32	-1.28	11.6	6.02	3.32	5.52	3.32	0.72	0.92	3.22	-4.38	-1.68	-4.38	3.42	0.32	6.62	0.02	0.22	7.52	-4.38
CNC(=O)c1ccccc1Sc1ccc2c(/C=C/c3ccccn3)n[nH]c2c1 [Axitinib] (top concentration 10000 nM)	14.7	9.16	20.1	11	8.26	13.3	2.96	-0.94	5.06	6.36	6.56	-0.34	-2.44	13.1	7.86	17.3	11.1	13.1	16.4	-2.94
COc1ccc(-c2nc(N3CCOCC3)c3sc(CN(C)c4ncc(C(=O)NO)cn4)cc3n2)cn1 [Fimepinostat (CUDC-907)] (top concentration 10000 nM)	9.88	6.48	8.98	1.68	7.58	1.08	3.28	0.98	0.98	9.58	8.88	10.3	9.68	8.68	8.68	1.98	10.9	8.68	10.7	-14.8
CC(C)C[C@H](NC(=O)[C@H](CCc1ccccc1)NC(=O)CN1CCOCC1)C(=O)N[C@@H](Cc1ccccc1)C(=O)N[C@@H](CC(C)C)C(=O)[C@@]1(C)CO1 [Carfilzomib] (top concentration 1000 nM)	0.66	4.76	1.66	3.86	1.06	5.16	0.26	-8.84	-4.04	0.66	-0.04	1.56	1.56	1.36	1.06	2.56	0.86	8.56	4.56	-8.24
CC(=O)c1cnc2ccc(-c3cc(Cl)c(O)c(Cl)c3)nc2c1N[C@H]1CC[C@H](CN(C)C)CC1 [OTS167] (top concentration 1000 nM)	5.48	-2.12	2.08	13.2	3.58	3.78	4.08	1.88	-3.52	0.58	4.58	3.18	2.58	2.78	-1.52	1.78	8.28	0.58	2.98	-12.1
CC(C)C[C@@H](C(=O)N[C@H](C(=O)OC1CCCC1)c1ccccc1)[C@H](O)C(=O)NO [Tosedostat] (top concentration 10000 nM)	-1.54	6.96	1.06	3.16	14.9	2.26	1.26	-3.84	2.16	8.66	-5.44	5.76	1.26	10.4	-1.04	0.06	2.16	0.86	11	-5.24
Cc1ccc(NC(=O)c2ccc(CN3CCN(C)CC3)cc2)cc1Nc1nccc(-c2cccnc2)n1 [Imatinib] (top concentration 10000 nM)	1.06	1.86	24.9	7.96	1.36	10.2	3.06	-0.44	0.66	1.96	-0.44	0.16	-0.44	0.46	-0.44	12	2.16	0.06	17.4	-0.44
CC(=O)N(O)CCCCCNC(=O)CCC(=O)N(O)CCCCCNC(=O)CCC(=O)N(O)CCCCCN [Deferoxamine] (top concentration 10000 nM)	6.26	2.56	3.56	4.86	18.4	10.4	0.76	8.46	2.26	5.16	-0.74	7.66	-0.84	6.26	5.06	2.16	3.86	2.66	4.76	3.46
Cc1cc(Nc2cc(CN3CCOCC3)c3nc(C)c(Cc4ccc(Cl)cc4F)n3n2)n[nH]1 [Gandotinib] (top concentration 10000 nM)	5.28	4.98	9.08	5.98	8.68	2.18	0.88	4.68	3.98	9.48	7.18	7.48	4.78	5.68	4.58	8.68	8.88	10.5	7.78	-7.72
CO[C@H]1CC[C@H](N2C(=O)CNc3ncc(-c4ccc(C(C)(C)O)nc4)nc32)CC1 [CC-223] (top concentration 10000 nM)	5.02	0.22	1.32	2.62	-0.48	1.92	-2.28	6.32	0.02	2.22	7.92	6.42	1.52	4.12	1.42	1.02	9.62	0.72	-1.38	-3.88
CCC(C)n1ncn(-c2ccc(N3CCN(c4ccc(OCC5COC(Cn6cncn6)(c6ccc(Cl)cc6Cl)O5)cc4)CC3)cc2)c1=O (stereo not given) [Itraconazole] (top concentration 5000 nM)	0.18	1.88	2.88	2.08	-2.12	2.48	1.88	2.28	1.58	6.18	-3.22	5.48	-0.12	2.38	-1.02	0.88	5.48	-2.32	1.18	-2.92
NC(=O)NO [Hydroxyurea] (top concentration 1000000 nM)	12.8	-4.54	3.56	6.66	15.4	12.5	-1.74	5.26	3.16	2.86	-2.14	4.56	-1.04	5.76	2.56	5.56	9.66	5.36	9.96	-3.94
CCC/C=C/C=C/C(=O)O[C@H]1/C(=C/C(=O)OC)C[C@H]2C[C@H]([C@@H](C)O)OC(=O)C[C@H](O)C[C@@H]3C[C@H](OC(C)=O)C(C)(C)[C@](O)(C[C@@H]4C/C(=C/C(=O)OC)C[C@H](/C=C/C(C)(C)[C@]1(O)O2)O4)O3 [Bryostatin_1] (top concentration 100 nM)	12	-7.12	-7.12	20.4	-6.82	-7.12	-5.92	0.08	-0.02	-7.12	-7.12	8.68	-7.12	-7.12	-7.12	-7.12	-7.12	-7.12	15.6	-6.82
CCS(=O)(=O)c1cccc(-c2cc(C(=O)NC3CCN(C)CC3)c(C)c3[nH]c4ncc(C)cc4c23)c1 [TAK-901] (top concentration 1000 nM)	12.8	7.76	15.3	13.6	11.7	11.3	3.66	-2.74	1.86	8.86	7.56	7.26	3.16	12.6	9.66	12.4	10.7	9.36	11	-4.74
Cc1cnc(Nc2ccc(OCCN3CCCC3)cc2)nc1Nc1cccc(S(=O)(=O)NC(C)(C)C)c1 [Fedratinib] (top concentration 10000 nM)	-0.76	3.24	0.84	0.54	-3.36	-2.26	0.14	-1.96	-2.06	0.04	-6.16	-0.26	-1.36	-1.06	-1.26	-0.16	-1.06	2.74	-0.66	-7.06

Source: the supplement of paper PMC8967900
